Results as given in patent publication US6492387B2, “Isoindolyl and isoquinolinyl aroyl pyrrole compounds” (Ortho-McNeil Pharamaceutical, Inc., priority 2000, dated 2002).
Structures can show the parent of a compound that is named as a salt.

COc1cc2c(cc1OC)CN(CC(=O)c1cc(C(=O)c3ccc(SC)cc3)n(C)c1)CC2 (as salt: hydrochloride) [Compound 4, 2-(3,4-dihydro-6,7-dimethoxy-2(1H)-isoquinolinyl)-1-[1-methyl-5-[4-(methylthio)benzoyl]-1H-pyrrol-3-yl]-ethanone] showed a melting point of 231 to 233 °C.
